Measured values from ChEMBL document CHEMBL3045196, “Relationships between Insecticidal Activity of 6-Alkylthio-2-pyridyl Methanesulfonates and Acetylcholinesterase Inhibition of their Sulfone Derivatives against Nephotettix cincticeps” (J Pestic Sci, 1990).

How the values were obtained:
[1] = Methanol-water partition coefficient, log k of the compound; type: physicochemical
[2] = biological target: Ace-orthologous acetylcholinesterase (Nephotettix cincticeps) (UniProt Q9NJH6); assay: Inhibition of susceptible Nephotettix cincticeps Ageo (green rice leafhopper) acetylcholinesterase activity
[3] = biological target: Ace-orthologous acetylcholinesterase (Nephotettix cincticeps) (UniProt Q9NJH6); assay: Inhibition of susceptible Nephotettix cincticeps Izumi (green rice leafhopper) acetylcholinesterase activity
Nephotettix cincticeps [4] = assay: Insecticidal activity against susceptible Nephotettix cincticeps Ageo (green rice leafhopper)assessed as mortality by foliar-spray; type: functional
Nephotettix cincticeps [5] = assay: Insecticidal activity against resistant Nephotettix cincticeps Izumi (green rice leafhopper) assessed as mortality by foliar-spray; type: functional

Ace-orthologous acetylcholinesterase (Nephotettix cincticeps), sequence (Q9NJH6 20-677 limits assumed): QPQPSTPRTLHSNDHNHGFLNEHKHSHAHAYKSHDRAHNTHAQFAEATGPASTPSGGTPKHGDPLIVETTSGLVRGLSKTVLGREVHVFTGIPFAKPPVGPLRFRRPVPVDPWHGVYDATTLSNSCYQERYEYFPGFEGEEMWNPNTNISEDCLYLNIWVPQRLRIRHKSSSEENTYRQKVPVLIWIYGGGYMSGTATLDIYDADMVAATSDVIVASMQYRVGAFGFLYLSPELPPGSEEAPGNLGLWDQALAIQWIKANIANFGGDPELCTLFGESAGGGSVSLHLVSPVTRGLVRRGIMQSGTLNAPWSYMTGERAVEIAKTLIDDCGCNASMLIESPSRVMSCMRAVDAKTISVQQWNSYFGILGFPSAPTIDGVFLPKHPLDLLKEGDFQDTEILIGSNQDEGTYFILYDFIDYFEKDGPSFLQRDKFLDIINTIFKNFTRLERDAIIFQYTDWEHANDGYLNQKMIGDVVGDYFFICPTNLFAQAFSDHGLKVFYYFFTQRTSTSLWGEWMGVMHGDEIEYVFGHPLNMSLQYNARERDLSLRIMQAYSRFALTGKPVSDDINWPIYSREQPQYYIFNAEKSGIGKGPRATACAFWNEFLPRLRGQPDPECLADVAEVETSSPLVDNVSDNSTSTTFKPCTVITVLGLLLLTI

Compound | log K [1] | log(1/I50) [2] | log(1/I50) [3] | log(1/LD50) (Nephotettix cincticeps [4]) | log(1/LD50) (Nephotettix cincticeps [5])
CS(=O)(=O)Oc1cccc(S(C)(=O)=O)n1 | -0.602 | 7.17 | – | – | –
CCCC(C)S(=O)(=O)c1cccc(OS(C)(=O)=O)n1 (stereo not drawn) | 0.507 | 9.3 | 9.7 | – | –
CS(=O)(=O)Oc1cccc(Sc2ccccc2)n1 | 0.268 | – | – | 8.53 | 7.3
CCCCCS(=O)(=O)c1cccc(OS(C)(=O)=O)n1 | 0.632 | 8.15 | 8 | – | –
CC(C)CS(=O)(=O)c1cccc(OS(C)(=O)=O)n1 | 0.274 | 9.15 | 8.4 | – | –
CC(C)(C)Sc1cccc(OS(C)(=O)=O)n1 | 0.277 | – | – | 7.82 | 6.87
CCC(C)S(=O)(=O)c1cccc(OS(C)(=O)=O)n1 (stereo not drawn) | 0.188 | 8.7 | 9 | – | –
CCC(C)Sc1cccc(OS(C)(=O)=O)n1 (stereo not drawn) | 0.37 | – | – | 8.24 | 7.68
CSCCSc1cccc(OS(C)(=O)=O)n1 | -0.174 | – | – | 7.7 | 6.54
CS(=O)(=O)Oc1cccc(SCC2CC2)n1 | 0.192 | – | – | 8.64 | 7.8
CCCCCSc1cccc(OS(C)(=O)=O)n1 | 0.649 | – | – | 7.43 | 6.74
CCCSc1cccc(OS(C)(=O)=O)n1 | 0.196 | – | – | 8.57 | 7.65
CCCCS(=O)(=O)c1cccc(OS(C)(=O)=O)n1 | 0.293 | 8.8 | 8.22 | – | –
CCCCSc1cccc(OS(C)(=O)=O)n1 | 0.425 | – | – | 8.3 | 7.41
CCSc1cccc(OS(C)(=O)=O)n1 | -0.034 | – | – | 8.14 | 7.33
CC(C)CCSc1cccc(OS(C)(=O)=O)n1 | 0.614 | – | – | 7.24 | 6.44
CC(C)(C)CSc1cccc(OS(C)(=O)=O)n1 | 0.558 | – | – | 8.26 | 6.69

Compound | log K [1] | log(1/I50) [2] | log(1/I50) [3] | log(1/LD50) (Nephotettix cincticeps [4]) | log(1/LD50) (Nephotettix cincticeps [5])
CS(=O)(=O)Oc1cccc(SC2CCCC2)n1 | 0.447 | – | – | 8.39 | 7.82
CC(C)(C)S(=O)(=O)c1cccc(OS(C)(=O)=O)n1 | 0.085 | 7.28 | 7.07 | – | –
CCCS(=O)(=O)c1cccc(OS(C)(=O)=O)n1 | -0.036 | 8.7 | 8.08 | – | –
CC(C)Sc1cccc(OS(C)(=O)=O)n1 | 0.163 | – | – | 8.43 | 7.39
CC(C)CCS(=O)(=O)c1cccc(OS(C)(=O)=O)n1 | 0.576 | 7.77 | 7.8 | – | –
CS(=O)(=O)Oc1cccc(S(=O)(=O)Cc2ccccc2)n1 | 0.35 | 8.82 | 8.09 | – | –
CS(=O)(=O)Oc1cccc(S(=O)(=O)c2ccccc2)n1 | 0.236 | 8.14 | 8 | – | –
CC(C)CSc1cccc(OS(C)(=O)=O)n1 [6-(ISOBUTYLTHIO)PYRIDIN-2-YL METHANESULFONATE] | 0.399 | – | – | 8.16 | 7.95
CCS(=O)(=O)c1cccc(OS(C)(=O)=O)n1 | -0.358 | 8.02 | 7.22 | – | –
CS(=O)(=O)Oc1cccc(SC2CCCCC2)n1 | 0.664 | – | – | 7.69 | 7.28
CS(=O)(=O)Oc1cccc(SCc2ccccc2)n1 | 0.33 | – | – | 7.91 | 6.97
CS(=O)(=O)Oc1cccc(S(=O)(=O)C2CCCCC2)n1 | 0.565 | 9.02 | 9.1 | – | –
CCCC(C)Sc1cccc(OS(C)(=O)=O)n1 (stereo not drawn) | 0.59 | – | – | 7.65 | 7.41
CSc1cccc(OS(C)(=O)=O)n1 | 0.259 | – | – | 6.71 | 5.74
CS(=O)(=O)Oc1cccc(S(=O)(=O)C2CCCC2)n1 | 0.274 | 9.15 | 9.11 | – | –
CC(C)S(=O)(=O)c1cccc(OS(C)(=O)=O)n1 | -0.115 | 9.52 | 8.3 | – | –
